Consider two compounds from US20240319193A1, “CIRCULATING TUMOR CELL DIAGNOSTICS FOR BIOMARKERS PREDICTIVE OF RESISTANCE TO ANDROGEN RECEPTOR (AR) TARGETED THERAPIES” (Epic Sciences, Inc., priority 2014, published 2024).

This assay concerns progressive mCRPC patients. Kind of assay: Response to AR targeted therapy by baseline CTC AR expression (Epic CTC), Example 1. Format: in vivo, human. As to conditions: pooled AA+P or E patients; for patients with high AR who responded: high baseline AR expression on CTCs, N = 7; for patients with low AR who had a PSA decline and stable radiographic disease: low baseline AR expression on CTCs, N = 14, median follow-up 12 wks. The source says: 48 samples from 21 unique progressive mCRPC patients treated with androgen receptor targeted (AR tx) therapies, 9 (43%) on Abiraterone plus Prednisone (AA+P) and 12 (57%) on Enzalutamide (E). Samples were collected and shipped to Epic Sciences, where cells were stained and CTC identified by fluorescent scanners and algorithmic analysis. CTCs, defined as classic (CK+CD45-w/intact DAPI nuclei and distinct), apopotic (CK+, CD45−, non-intact nuclei) and CK− (CK−, CD45-, intact and distinct) were identified. CTCs reported per mL of blood and were examined for AR, PTEN & ERG. CTC data were analyzed in context of PSA, Veridex CTC (reported per 7.5mL of blood), and clinical history.

As to `CNC(=O)c1ccc(N2C(=S)N(c3ccc(C#N)c(C(F)(F)F)c3)C(=O)C2(C)C)cc1F` [Enzalutamide], the “patients with high AR who responded” value is listed as 0%; the “patients with low AR who had a PSA decline and stable radiographic disease” value was 53%.
As to Abiraterone plus Prednisone, the “patients with high AR who responded” value was 0%; the “patients with low AR who had a PSA decline and stable radiographic disease” value was found to be 53%.
